From the NIST ThermoML archive (doi:10.1021/acs.jced.9b00442)
± gives the expanded uncertainty stated by the source.

Conditions: 100 kPa, Liquid; for electrical conductivity: Frequency=0.0006 MHz, Alternating current cell with electrodes; for viscosity: Concentric cylinders viscometry; for mass density: Vibrating tube method

CC[N+](CCO)(CCO)CCO.O=S(=O)([N-]S(=O)(=O)C(F)(F)F)C(F)(F)F
Conditions	electrical conductivity [S/m]	mass density [kg/m3]	viscosity [mPa·s]
283.15 K	0.007 ± 0.001	–	–
288.15 K	0.011 ± 0.001	1538.5 ± 1.2	2041.7 ± 120
289.15 K	–	1537.6 ± 1.2	–
290.15 K	–	1536.7 ± 1.2	–
291.15 K	–	1535.9 ± 1.2	–
292.15 K	–	1535 ± 1.2	–
293.15 K	0.018 ± 0.001	1534.1 ± 1.2	1275.4 ± 72
294.15 K	–	1533.2 ± 1.2	–
295.15 K	–	1532.4 ± 1.2	–
296.15 K	–	1531.5 ± 1.2	–
297.15 K	–	1530.6 ± 1.2	–
298.15 K	0.026 ± 0.001	1529.7 ± 1.2	840.6 ± 45
299.16 K	–	1528.9 ± 1.2	–
300.16 K	–	1528 ± 1.2	–
301.15 K	–	1527.1 ± 1.2	–
302.15 K	–	1526.2 ± 1.2	–
303.15 K	0.037 ± 0.001	1525.4 ± 1.2	569.4 ± 29
304.15 K	–	1524.5 ± 1.2	–
305.15 K	–	1523.6 ± 1.2	–
306.15 K	–	1522.7 ± 1.2	–
307.15 K	–	1521.9 ± 1.2	–
308.15 K	0.052 ± 0.001	1521 ± 1.2	397.8 ± 19
309.15 K	–	1520.1 ± 1.2	–
310.15 K	–	1519.2 ± 1.2	–
311.15 K	–	1518.4 ± 1.2	–
312.15 K	–	1517.5 ± 1.2	–
313.15 K	0.07 ± 0.002	1516.6 ± 1.2	280.3 ± 13
314.15 K	–	1515.7 ± 1.2	–
315.15 K	–	1514.9 ± 1.2	–
316.15 K	–	1514 ± 1.2	–
317.15 K	–	1513.1 ± 1.2	–
318.15 K	0.092 ± 0.002	1512.2 ± 1.2	210.5 ± 9.3
319.15 K	–	1511.3 ± 1.2	–
320.15 K	–	1510.5 ± 1.2	–
321.15 K	–	1509.6 ± 1.2	–
322.15 K	–	1508.7 ± 1.2	–
323.15 K	0.118 ± 0.002	1507.8 ± 1.2	158.6 ± 6.8
324.15 K	–	1507 ± 1.2	–
325.15 K	–	1506.1 ± 1.2	–
326.15 K	–	1505.2 ± 1.2	–
327.15 K	–	1504.4 ± 1.2	–
328.15 K	–	1503.5 ± 1.2	122 ± 5.1
329.15 K	–	1502.6 ± 1.2	–
330.15 K	–	1501.8 ± 1.2	–
331.15 K	–	1500.9 ± 1.2	–
332.15 K	–	1500 ± 1.2	–
333.15 K	–	1499.2 ± 1.2	94.7 ± 3.9
334.15 K	–	1498.3 ± 1.2	–
335.16 K	–	1497.4 ± 1.2	–
336.15 K	–	1496.6 ± 1.2	–
337.15 K	–	1495.7 ± 1.2	–
338.15 K	–	1494.9 ± 1.2	76.1 ± 3.1
339.15 K	–	1494 ± 1.2	–
340.15 K	–	1493.2 ± 1.2	–
341.15 K	–	1492.3 ± 1.2	–
342.15 K	–	1491.4 ± 1.2	–
343.15 K	–	1490.6 ± 1.2	61.6 ± 2.5
344.15 K	–	1489.7 ± 1.2	–
345.15 K	–	1488.9 ± 1.2	–
346.15 K	–	1488 ± 1.2	–
347.15 K	–	1487.2 ± 1.2	–
348.15 K	–	1486.3 ± 1.2	50.6 ± 2
349.15 K	–	1485.5 ± 1.2	–
350.15 K	–	1484.6 ± 1.2	–
351.15 K	–	1483.8 ± 1.2	–
352.15 K	–	1483 ± 1.2	–
353.15 K	–	1482.1 ± 1.2	41.9 ± 1.7
354.15 K	–	1481.3 ± 1.2	–
355.15 K	–	1480.4 ± 1.2	–
356.15 K	–	1479.6 ± 1.2	–
357.15 K	–	1478.7 ± 1.2	–
358.15 K	–	1477.9 ± 1.2	35.3 ± 1.4
359.15 K	–	1477.1 ± 1.2	–
360.15 K	–	1476.2 ± 1.2	–
361.15 K	–	1475.4 ± 1.2	–
362.16 K	–	1474.6 ± 1.2	–
363.15 K	–	1473.7 ± 1.2	30 ± 1.2

CC[N+](C)(CCO)CCO.O=S(=O)([N-]S(=O)(=O)C(F)(F)F)C(F)(F)F
Conditions	electrical conductivity [S/m]	mass density [kg/m3]	viscosity [mPa·s]
283.15 K	0.027 ± 0.001	–	–
288.15 K	0.04 ± 0.001	1524.5 ± 1.2	536.2 ± 27
289.15 K	–	1523.6 ± 1.2	–
290.15 K	–	1522.7 ± 1.2	–
291.15 K	–	1521.7 ± 1.2	–
292.15 K	–	1520.8 ± 1.2	–
293.15 K	0.056 ± 0.001	1519.9 ± 1.2	–
294.15 K	–	1519 ± 1.2	–
295.15 K	–	1518 ± 1.2	–
296.15 K	–	1517.1 ± 1.2	–
297.15 K	–	1516.2 ± 1.2	–
298.15 K	0.076 ± 0.002	1515.3 ± 1.2	268.3 ± 12
299.16 K	–	1514.4 ± 1.2	–
300.16 K	–	1513.4 ± 1.2	–
301.15 K	–	1512.5 ± 1.2	–
302.15 K	–	1511.6 ± 1.2	–
303.15 K	0.101 ± 0.002	1510.7 ± 1.2	197.7 ± 8.7
304.15 K	–	1509.8 ± 1.2	–
305.15 K	–	1508.9 ± 1.2	–
306.15 K	–	1508 ± 1.2	–
307.15 K	–	1507.1 ± 1.2	–
308.15 K	0.13 ± 0.003	1506.2 ± 1.2	149 ± 6.3
309.15 K	–	1505.3 ± 1.2	–
310.15 K	–	1504.4 ± 1.2	–
311.15 K	–	1503.5 ± 1.2	–
312.15 K	–	1502.6 ± 1.2	–
313.15 K	0.165 ± 0.003	1501.7 ± 1.2	112.6 ± 4.7
314.15 K	–	1500.8 ± 1.2	–
315.15 K	–	1499.9 ± 1.2	–
316.15 K	–	1499 ± 1.2	–
317.15 K	–	1498.1 ± 1.2	–
318.15 K	0.206 ± 0.004	1497.2 ± 1.2	89.9 ± 3.7
319.15 K	–	1496.3 ± 1.2	–
320.15 K	–	1495.4 ± 1.2	–
321.15 K	–	1494.6 ± 1.2	–
322.15 K	–	1493.7 ± 1.2	–
323.15 K	0.253 ± 0.005	1492.8 ± 1.2	71.7 ± 2.9
324.15 K	–	1491.9 ± 1.2	–
325.15 K	–	1491 ± 1.2	–
326.15 K	–	1490.2 ± 1.2	–
327.15 K	–	1489.3 ± 1.2	–
328.15 K	–	1488.4 ± 1.2	58.1 ± 2.3
329.15 K	–	1487.5 ± 1.2	–
330.15 K	–	1486.7 ± 1.2	–
331.15 K	–	1485.8 ± 1.2	–
332.15 K	–	1484.9 ± 1.2	–
333.15 K	–	1484.1 ± 1.2	47.3 ± 1.9
334.15 K	–	1483.2 ± 1.2	–
335.16 K	–	1482.3 ± 1.2	–
336.15 K	–	1481.5 ± 1.2	–
337.15 K	–	1480.6 ± 1.2	–
338.15 K	–	1479.7 ± 1.2	39.7 ± 1.6
339.15 K	–	1478.9 ± 1.2	–
340.15 K	–	1478 ± 1.2	–
341.15 K	–	1477.1 ± 1.2	–
342.15 K	–	1476.3 ± 1.2	–
343.15 K	–	1475.4 ± 1.2	33.4 ± 1.4
344.15 K	–	1474.6 ± 1.2	–
345.15 K	–	1473.7 ± 1.2	–
346.15 K	–	1472.8 ± 1.2	–
347.15 K	–	1472 ± 1.2	–
348.15 K	–	1471.1 ± 1.2	28.4 ± 1.1
349.15 K	–	1470.3 ± 1.2	–
350.15 K	–	1469.4 ± 1.2	–
351.15 K	–	1468.6 ± 1.2	–
352.15 K	–	1467.7 ± 1.2	–
353.15 K	–	1466.8 ± 1.2	24.3 ± 1
354.15 K	–	1466 ± 1.2	–
355.15 K	–	1465.1 ± 1.2	–
356.15 K	–	1464.3 ± 1.2	–
357.15 K	–	1463.5 ± 1.2	–
358.15 K	–	1462.6 ± 1.2	21.1 ± 0.9
359.15 K	–	1461.8 ± 1.2	–
360.15 K	–	1460.9 ± 1.2	–
361.15 K	–	1460.1 ± 1.2	–
362.16 K	–	1459.2 ± 1.2	–
363.15 K	–	1458.4 ± 1.2	18.4 ± 0.7
